How the values were obtained:
[1] = target: T1, PDE3A catalytic domain (PDE3Acat) (Homo sapiens, UniProt Q14432); test: Phosphodiesterase inhibitory activity, recombinant PDE3Acat, [3H]cAMP; assay type: biochemical; conditions: 30° C. 20 minutes, read-out: IC50 (μmol/L) PDE3
T1 construct: isolate the cDNA of a PDE3A catalytic domain; made in house; host or cells: Sf9 insect cells (baculovirus, Bac-to-Bac / Gateway)

[2] = test system: histamine-induced bronchoconstriction in guinea pigs; test: Histamine-induced bronchoconstriction reaction in guinea pigs; assay type: in vivo, guinea pig; conditions: Cavia porcellus, iv, 0.5 min, compound 0.3 mg/kg i.v., measured 30 seconds after administration, histamine 12.5 μg/kg i.v., read-out: Inhibition rate (histamine-induced bronchoconstriction)
Experimental: Guinea pigs were anesthetized with pentobarbital (30 mg/kg, i.p.). A cannula for intravenous administration, a cannula for collecting blood and measuring blood pressure, and a tracheal cannula were inserted into the left external jugular vein, right internal carotid artery, and trachea, respectively. The guinea pigs were maintained on artificial respiration under conditions of 60 times/min and 10 mL/kg/stroke. The overflowing air from the side branch of the tracheal cannula was measured by a bronchospasm transducer (Ugo-Basile) and recorded on a computer via Power Lab (ADInstruments Japan). The guinea pigs were immobilized with gallamine (10 mg/kg, i.v.), and histamine (12.5 μg/kg, i.v.) was administered at 10-minute intervals. After the histamine-induced bronchoconstriction became stable, the compound (0.3 mg/kg, i.v.) was administered. The histamine-induced bronchoconstriction reaction was measured 30 seconds after the compound administration to examine the bronchoconstriction inhibitory activity of the compound. The bronchoconstriction was recorded as the airflow value, and the results were represented by the ratio of the maximum value of the histamine-induced airflow 30 seconds after administration to the maximum value of the airflow before administration. Also, the test compounds dissolved in DMSO were used. Further, the indications were as follows: inhibition rate≧90% (+++), 90%>inhibition rate≧80% (++), and 80%>inhibition rate≧60% (+).

PDE4Bcat = target: T2, PDE4Bcat (Homo sapiens, UniProt Q07343); test: Phosphodiesterase inhibitory activity, recombinant PDE4Bcat, [3H]cAMP; assay type: biochemical; conditions: 30° C. 20 minutes, read-out: IC50 (μmol/L) PDE4
T2 construct: made in house; host or cells: Sf9 insect cells (baculovirus, Bac-to-Bac / Gateway)
T2 sequence (Q07343 330-659 limits assumed): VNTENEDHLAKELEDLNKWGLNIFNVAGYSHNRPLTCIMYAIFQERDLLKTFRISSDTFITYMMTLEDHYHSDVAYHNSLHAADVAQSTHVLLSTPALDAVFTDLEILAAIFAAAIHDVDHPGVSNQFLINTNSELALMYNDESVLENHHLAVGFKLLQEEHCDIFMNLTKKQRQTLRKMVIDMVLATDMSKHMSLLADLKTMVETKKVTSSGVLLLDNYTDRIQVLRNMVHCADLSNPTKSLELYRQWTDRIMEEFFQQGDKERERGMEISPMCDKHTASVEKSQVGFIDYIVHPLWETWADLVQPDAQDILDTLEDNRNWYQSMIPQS

T1 sequence (Q14432 674-1093 limits assumed): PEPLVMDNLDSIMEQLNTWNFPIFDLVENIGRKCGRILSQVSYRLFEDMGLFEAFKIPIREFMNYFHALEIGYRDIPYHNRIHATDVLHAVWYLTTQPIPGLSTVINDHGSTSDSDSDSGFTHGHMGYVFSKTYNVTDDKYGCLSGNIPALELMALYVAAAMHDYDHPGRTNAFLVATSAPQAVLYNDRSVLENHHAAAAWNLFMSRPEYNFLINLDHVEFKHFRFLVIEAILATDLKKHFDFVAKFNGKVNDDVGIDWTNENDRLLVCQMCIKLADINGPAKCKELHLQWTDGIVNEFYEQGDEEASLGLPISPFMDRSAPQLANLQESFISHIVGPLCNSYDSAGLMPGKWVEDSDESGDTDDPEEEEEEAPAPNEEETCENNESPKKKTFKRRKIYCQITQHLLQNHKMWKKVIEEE

| SMILES | IC50 [1] | inhibition in vivo at 0.3 mg/kg [2] | IC50 (PDE4Bcat) |
| --- | --- | --- | --- |
| COc1ccc(C2=NN(CCCCOc3ccc(C4=NNC(=O)CC4C)cc3)C(=O)C2(C)C)c2ccc(C)nc12 (stereo not drawn) [Example 193, 5-(8-Methoxy-2-methylquinolin-5-yl)-2-[4-[4-(4-methyl-6-oxo-1,4,5,6-tetrahydropyridazin-3-yl)phenoxy]butyl]-4,4-dimethyl-4,4-dihydro-pyrazol-3-one] | 0.01 to 0.1 µmol/L | ≥ 90% | 0.01 to 0.1 µmol/L |
| CCc1ccc2c(C3=NN(CCCCOc4ccc(C5=NNC(=O)CC5C)cc4)C(=O)C3(C)C)ccc(OC)c2n1 (stereo not drawn) [Example 194, 5-(2-Ethyl-8-methoxyquinolin-5-yl)-2-[4-[4-(4-methyl-6-oxo-1,4,5,6-tetrahydropyridazin-3-yl)phenoxy]butyl]-4,4-dimethyl-2,4-dihydro-pyrazol-3-one] | 0.01 to 0.1 µmol/L | ≥ 90% | 0.01 to 0.1 µmol/L |
| COc1ccc(C2=NN(CCCCOc3ccc(C4=NNC(=O)CC4C)cc3)C(=O)C2(C)C)c2ccc(C(C)C)nc12 (stereo not drawn) [Example 195, 5-(8-Methoxy-2-isopropylquinolin-5-yl)-2-[4-[4-(4-methyl-6-oxo-1,4,5,6-tetrahydropyridazin-3-yl)phenoxy]butyl]-4,4-dimethyl-2,4-dihydro-pyrazol-3-one] | < 0.01 µmol/L |  | 0.1 to 1 µmol/L |
| COc1ccc(C2=NN(CCCCOc3ccc(C4=NNC(=O)CC4C)c(F)c3F)C(=O)C2(C)C)c2ccc(C)nc12 (stereo not drawn) [Example 196, 2-[4-[2,3-Difluoro-4-(4-methyl-6-oxo-1,4,5,6-tetrahydropyridazin-3-yl)phenoxy]butyl]-5-(8-methoxy-2-methylquinolin-5-yl)-4,4-dimethyl-2,4-dihydro-pyrazol-3-one] | < 0.01 µmol/L | ≥ 90% | 0.01 to 0.1 µmol/L |
| CCc1ccc2c(C3=NN(CCCCOc4ccc(C5=NNC(=O)CC5)c(F)c4F)C(=O)C3(C)C)ccc(OC)c2n1 [Example 198, 5-(2-Ethyl-8-methoxyquinolin-5-yl)-2-[4-[2,3-difluoro-4-(6-oxo-1,4,5,6-tetrahydropyridazin-3-yl)phenoxy]butyl]-4,4-dimethyl-2,4-dihydro-pyrazol-3-one] | < 0.01 µmol/L | ≥ 90% | 0.01 to 0.1 µmol/L |
| CCc1ccc2c(C3=NN(CCCCOc4ccc(C5=NNC(=O)CC5)cc4F)C(=O)C3(C)C)ccc(OC)c2n1 [Example 199, 5-(2-Ethyl-8-methoxyquinolin-5-yl)-2-[4-[2-fluoro-4-(6-oxo-1,4,5,6-tetrahydropyridazin-3-yl)phenoxy]butyl]-4,4-dimethyl-2,4-dihydro-pyrazol-3-one] | 0.01 to 0.1 µmol/L | ≥ 90% | < 0.01 µmol/L |
| CCc1ccc2c(C3=NN(CCCCOc4ccc(C5=NNC(=O)C5(C)C)cc4)C(=O)C3(C)C)ccc(OC)c2n1 [Example 201, 5-(2-Ethyl-8-methoxyquinolin-5-yl)-2-[4-[4-(4,4-dimethyl-5-oxo-4,5-dihydro-1H-pyrazol-3-yl)phenoxy]butyl]-4,4-dimethyl-2,4-dihydro-pyrazol-3-one] | 0.1 to 1 µmol/L |  | 0.01 to 0.1 µmol/L |
| CCc1ccc2c(C3=NN(CCCCOc4ccc(C5=NNC(=O)C5(C)C)cc4OC)C(=O)C3(C)C)ccc(OC)c2n1 [Example 204, 5-(2-Ethyl-8-methoxyquinolin-5-yl)-2-[4-[2-methoxy-4-(4,4-dimethyl-5-oxo-4,5-dihydro-1H-pyrazol-3-yl)phenoxy]butyl]-4,4-dimethyl-2,4-dihydro-pyrazol-3-one] | 0.1 to 1 µmol/L |  | 0.1 to 1 µmol/L |
| CCc1ccc2c(C3=NN(CCCCOc4ccc(C5=NNC(=O)CC5C)cc4OC)C(=O)C3(C)C)ccc(OC)c2n1 (stereo not drawn) [Example 208, 5-(2-Ethyl-8-methoxyquinolin-5-yl)-2-[4-[2-methoxy-4-(4-methyl-6-oxo-1,4,5,6-tetrahydropyridazin-3-yl)phenoxy]butyl]-4,4-dimethyl-2,4-dihydro-pyrazol-3-one] | 0.01 to 0.1 µmol/L |  | 0.1 to 1 µmol/L |
| COc1ccc(C2=NN(CCCCOc3ccc(C4=NNC(=O)CC4)c(F)c3F)C(=O)C2(C)C)c2cc(C(F)(F)F)oc12 [Example 216, 2-[4-[2,3-Difluoro-4-(6-oxo-1,4,5,6-tetrahydropyridazin-3-yl)phenoxy]butyl]-5-(7-methoxy-2-trifluoromethylbenzofuran-4-yl)-4,4-dimethyl-2,4-dihydro-pyrazol-3-one] | < 0.01 µmol/L |  | < 0.01 µmol/L |
| COc1ccc(C2=NN(CCCCOc3ccc(C4=NNC(=O)C4(C)C)c(F)c3F)C(=O)C2(C)C)c2cc(C(F)(F)F)oc12 [Example 217, 2-[4-[2,3-Difluoro-4-(4,4-dimethyl-5-oxo-4,5-dihydro-1H-pyrazol-3-yl)phenoxy]butyl]-5-(7-methoxy-2-trifluoromethylbenzofuran-4-yl)-4,4-dimethyl-2,4-dihydro-pyrazol-3-one] | 0.1 to 1 µmol/L |  | < 0.01 µmol/L |
| COc1ccc(C2=NN(CCCCOc3ccc(C4=NNC(=O)CC4C)c(F)c3F)C(=O)C2(C)C)c2cc(C(F)(F)F)oc12 (stereo not drawn) [Example 218, 2-[4-[2,3-Difluoro-4-(4-methyl-6-oxo-1,4,5,6-tetrahydropyridazin-3-yl)phenoxy]butyl]-5-(7-methoxy-2-trifluoromethylbenzofuran-4-yl)-4,4-dimethyl-2,4-dihydro-pyrazol-3-one] | < 0.01 µmol/L |  | < 0.01 µmol/L |
| COc1ccc(C2=NN(CCCCOc3ccc(C4=NNC(=O)CC4C)c(F)c3F)C(=O)C2(C)C)c2nc(C(F)(F)F)nn12 (stereo not drawn) [Example 225, 2-[4-[2,3-Difluoro-4-(4-methyl-6-oxo-1,4,5,6-tetrahydropyridazin-3-yl)phenoxy]butyl]-5-(5-methoxy-2-trifluoromethyl-[1,2,4]triazolo[1,5-a]pyridin-8-yl)-4,4-dimethyl-2,4-dihydro-pyrazol-3-one] | < 0.01 µmol/L |  | 0.01 to 0.1 µmol/L |
| COc1ccc(C2=NN(CCCCOc3ccc(C4=NNC(=O)CC4)c(F)c3F)C(=O)C2(C)C)c2nc(C(F)(F)F)nn12 [Example 226, 2-[4-[2,3-Difluoro-4-(6-oxo-1,4,5,6-tetrahydropyridazin-3-yl)phenoxy]butyl]-5-(5-methoxy-2-trifluoromethyl-[1,2,4]triazolo[1,5-a]pyridin-8-yl)-4,4-dimethyl-2,4-dihydro-pyrazol-3-one] | < 0.01 µmol/L |  | 0.01 to 0.1 µmol/L |
| COc1ccc(C2=NN(CCCCOc3ccc(C4=NNC(=O)C4(C)C)c(F)c3F)C(=O)C2(C)C)c2nc(C(F)(F)F)nn12 [Example 227, 2-[4-[2,3-Difluoro-4-(4,4-dimethyl-5-oxo-4,5-dihydro-1H-pyrazol-3-yl)phenoxy]butyl]-5-(5-methoxy-2-trifluoromethyl-[1,2,4]triazolo[1,5-a]pyridin-8-yl)-4,4-dimethyl-2,4-dihydro-pyrazol-3-one] | 0.01 to 0.1 µmol/L |  | 0.1 to 1 µmol/L |
| COc1ccc(C2=NN(CCCCOc3ccc(C4=NNC(=O)C4(C)C)c(F)c3F)C(=O)C2(C)C)c2sc(C(F)(F)F)nc12 [Example 230, 2-[4-[2,3-Difluoro-4-(4,4-dimethyl-5-oxo-4,5-dihydro-1H-pyrazol-3-yl)phenoxy]butyl]-5-(4-methoxy-2-trifluoromethylbenzo[d]thiazol-7-yl)-4,4-dimethyl-2,4-dihydro-pyrazol-3-one] | 0.01 to 0.1 µmol/L |  | < 0.01 µmol/L |
| CCc1cc2c(C3=NN(CCCCOc4ccc(C5=NNC(=O)CC5C)c(F)c4F)C(=O)C3(C)C)ccc(OC)n2c1 (stereo not drawn) [Example 231, 5-(2-Ethyl-5-methoxyindolidin-8-yl)-2-[4-[2,3-difluoro-4-(4-methyl-6-oxo-1,4,5,6-tetrahydropyridazin-3-yl)phenoxy]butyl]-4,4-dimethyl-2,4-dihydro-pyrazol-3-one] | < 0.01 µmol/L |  | 0.1 to 1 µmol/L |
| CCc1cc2c(C3=NN(CCCCOc4ccc(C5=NNC(=O)CC5)c(F)c4F)C(=O)C3(C)C)ccc(OC)n2c1 [Example 232, 5-(2-Ethyl-5-methoxyindolidin-8-yl)-2-[4-[2,3-difluoro-4-(6-oxo-1,4,5,6-tetrahydropyridazin-3-yl)phenoxy]butyl]-4,4-dimethyl-2,4-dihydro-pyrazol-3-one] | < 0.01 µmol/L |  | 0.01 to 0.1 µmol/L |
| CCc1cc2c(C3=NN(CCCCOc4ccc(C5=NNC(=O)C5(C)C)c(F)c4F)C(=O)C3(C)C)ccc(OC)n2c1 [Example 233, 5-(2-Ethyl-5-methoxyindolidin-8-yl)-2-[4-[2,3-difluoro-4-(4,4-dimethyl-5-oxo-4,5-dihydro-1H-pyrazol-3-yl)phenoxy]butyl]-4,4-dimethyl-2,4-dihydro-pyrazol-3-one] | 0.01 to 0.1 µmol/L |  | 0.1 to 1 µmol/L |
| CCc1ccc2c(C3=NN(CCOc4ccc(C5=NNC(=O)CC5C)c(F)c4F)C(=O)C3(C)C)ccc(OC)c2n1 (stereo not drawn) [Example 242, 5-(2-Ethyl-8-methoxyquinolin-5-yl)-2-[4-[2,3-difluoro-4-(4-methyl-6-oxo-1,4,5,6-tetrahydropyridazin-3-yl)phenoxy]ethyl]-4,4-dimethyl-2,4-dihydro-pyrazol-3-one] | < 0.01 µmol/L |  | 0.01 to 0.1 µmol/L |

From US20100130738A1 (priority 2007, published 2010)
